# According to publication PMC8760490, “Discovery of novel furanylbenzamide inhibitors that target oncogenic tyrosine phosphatase SHP2 in leukemia cells” (The Journal of Biological Chemistry, 2021):
# Read-outs that look alike come from different tables or passages of the source.
# Molecular target: T1, SHP2 catalytic domain (SHP2cat; residues 248–527) (Homo sapiens, UniProt Q06124)
# T1 construct: the SHP2 catalytic domain (SHP2cat; residues 248–527); made in house
# T1 sequence (Q06124 248-527): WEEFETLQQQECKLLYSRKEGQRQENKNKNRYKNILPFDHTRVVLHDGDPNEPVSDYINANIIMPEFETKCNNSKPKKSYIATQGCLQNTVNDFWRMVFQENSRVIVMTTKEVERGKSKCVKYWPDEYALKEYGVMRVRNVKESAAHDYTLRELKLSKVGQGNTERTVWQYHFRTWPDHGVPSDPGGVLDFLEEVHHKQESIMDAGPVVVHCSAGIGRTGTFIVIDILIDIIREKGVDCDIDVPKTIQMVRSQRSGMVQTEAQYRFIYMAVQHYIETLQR
# Test: DiFMUP fluorescence phosphatase inhibition assay, SHP2cat
# Assay type: biochemical
# Source text: To test the synthesized compounds for their potential to inhibit SHP2 activity, a fluorescence intensity-based assay using 6,8-difluoro-4-methylumbelliferyl phosphate (DiFMUP) as the substrate was adapted for three recombinant SHP2 constructs: (1) the SHP2 catalytic domain (SHP2cat; residues 248–527), (2) the full-length SHP2-E76K oncogenic mutant, and (3) the full-length SHP2 WT (SHP2-WT). The recombinant SHP2 proteins were expressed and purified as described previously ([36]). A dually phosphorylated peptide derived from the insulin receptor substrate 1 (IRS-1) served as a surrogate binding protein and was used to activate SHP2-WT ([30], [36]). […] Michaelis–Menten experiments to determine the DiFMUP Michaelis–Menten constant (Km) for each SHP2 construct were performed as described previously ([36]) and yielded the following values: SHP2-WT, Km = 60 μM; SHP2-E76K, Km = 20 μM; and SHP2cat, Km = 20 μM. Relative maximum rates (Vmax) of the DiFMUP reactions expressed as relative fluorescence units per minute (RFU/min) were as follows: SHP2-WT, Vmax = 871 RFU/min; SHP2-E76K, Vmax = 2730 RFU/min; and SHP2cat, Vmax = 2912 RFU/min. IC50 values for each compound were determined from initial rates in 10-point dose–response assays using DiFMUP at a concentration corresponding to its Km value for the respective SHP2 construct. […] Replacements for the benzothiophenone were explored using analog #10.
# Recombinant human full-length SHP2 (1–594) WT and E76K mutants, as well as the SHP2cat (248–527), were expressed and purified as described before ([36], [41]). Recombinant human PTP1B (1–300) and the codon-optimized STEP (280–566) catalytic domains were cloned into PET-15b and expressed as N-His-tagged fusion proteins. For expression, transformed BL21(DE3) cells were grown and induced similar as described for SHP2. Collected cells were resuspended in lysis buffer (25 mM Tris, pH 7.5, 300 mM NaCl, 50 mM imidazole, and 10% glycerol) with 100 mg/l RNaseA and were lysed with two passages using a microfluidizer. The lysate was clarified by centrifugation at 15,000g for 50 min and applied to nickel–nitrilotriacetic acid resin. The column resin was washed, and the PTP1B or STEP protein was eluted in lysis buffer at 300 mM imidazole. The PTP1B or STEP protein was further purified by S75 size-exclusion chromatography in 50 mM Tris, pH 7.5, 50 mM NaCl. The eluted peak fractions were supplemented with tris(2-carboxyethyl)phosphine to 10 mM, concentrated by ultrafiltration, and stored at −80 °C. The purified yield of PTP1B was 33 mg/l cell culture; the yield of STEP was 16 mg/l cell culture.
# SHP2 inhibitors were tested at RT in a 384-well plate format standard phosphatase fluorescence intensity assay using DiFMUP (Invitrogen/Thermo Fisher Scientific) as a substrate and a total reaction volume of 25 μl. SHP2 inhibitors or vehicle (DMSO) were spotted in triplicate into a black Greiner FLUOTRAC 200 384-well microplate (catalog no.: 781076; Greiner) for a 10-point dose–response assay using an Echo 555 Liquid Handler (Labcyte, Inc). PTP working solutions were prepared at a 0.625 nM concentration (for a final concentration of 0.5 nM) in buffer containing 50 mM Bis–Tris, pH 6.0, 50 mM NaCl, 5 mM DTT, and 0.01% Tween-20. Prior to the assay, a dually phosphorylated IRS-1 peptide (625 nM [500 nM final] ([30])) was added to full-length WT SHP2 working solutions and incubated for 20 min. DiFMUP working solutions at 5× final concentration were prepared in 50 mM Bis–Tris, pH 6.0, 50 mM NaCl, and 0.01% Tween-20. About 20 μl of PTP working solution was dispensed into the microplate and incubated with inhibitor for 20 min at RT. […] The reaction was initiated by addition of 5 μl DiFMUP working solutions. Fluorescence intensity was measured in kinetic mode (every minute for 7 or 10 min) using a Tecan Spark Multimode Microplate Reader (Tecan) with an excitation wavelength of 360 nm and an emission wavelength of 460 nm. […]
# [1] = DiFMUP at Km (20 μM), pH 6.0, read-out: SHP2cat, IC50
# [2] = catalytic domain, DiFMUP at Km, read-out: SHP2 IC50 (Table 2)
SMILES,IC50 [1],IC50 [2]
"Nc1ccc(NC(=O)c2cc(-c3ccc(/C=C4\Sc5ccccc5C4=O)o3)ccc2O)cc1 [SBI-2130, (Z)-N-(4-Aminophenyl)-2-hydroxy-5-(5-((3-oxobenzo[b]thiophen-2(3H)-ylidene)methyl)furan-2-yl)benzamide]",220 nM,220 nM
"O=C1CCCC1=Cc1ccc(-c2ccc(O)c(C(=O)Nc3ccccc3)c2)o1 [SBI-3192, 2-Hydroxy-5-(5-((2-oxocyclopentylidene)methyl)furan-2-yl)-N-phenylbenzamide]",1100 nM,1100 nM
"O=C(Nc1ccccc1)c1cc(-c2ccc(/C=C3\Sc4ccccc4C3=O)o2)ccc1O [SBI-4668, (Z)-2-Hydroxy-5-(5-((3-oxobenzo[b]thiophen-2(3H)-ylidene)methyl)furan-2-yl)-N-phenylbenzamide]",730 nM,730 nM

# The next lines start with the values.
IC50 [1],IC50 [2],SMILES
1400 nM,1400 nM,"N#Cc1cc(-c2ccc(/C=C3\Sc4ccccc4C3=O)o2)ccc1O [SBI-3404, (Z)-2-Hydroxy-5-(5-((3-oxobenzo[b]thiophen-2(3H)-ylidene)methyl)furan-2-yl)benzonitrile]"
2000 nM,2000 nM,"O=C1/C(=C/c2ccc(-c3ccc(O)c(-c4nn[nH]n4)c3)o2)Sc2ccccc21 [SBI-3405, (Z)-2-((5-(4-Hydroxy-3-(2H-tetrazol-5-yl)phenyl)furan-2-yl)methylene)benzo[b]thiophen-3(2H)-one]"
